Values of other authors, collected in US7108866B1, “Chronotherapeutic diltiazem formulations and the administration thereof” (Biovall Laboratories International SRL, priority 1999, dated 2006).

Settings: at steady state

- Tmax: 2 to 6 h
SMILES: COc1ccc([C@@H]2Sc3ccccc3N(CCN(C)C)C(=O)[C@@H]2OC(C)=O)cc1 [Diltiazem]
